One compound from ChEMBL document CHEMBL5506003, “Design and biological evaluation of dual tubulin/HDAC inhibitors based on millepachine for treatment of prostate cancer” (Eur J Med Chem, 2024) can be followed below.

By IC50 is commonly meant the point on the concentration scale where inhibition reaches its midpoint. High values mean weaker potency in that assay, low ones greater potency in that assay. As a reminder, the clearance is a measure of how efficiently the substance is removed, as volume per time. Low readings indicate a low capacity for elimination, high ones a high capacity for elimination.

Calls of active or inactive are those of the source. The calls are words filed in the database; no cut-off is given here.

The test system of data set [1] is PC-3. Put plainly: Induction of apoptosis in human PC-3 cells assessed as early apoptotic cells at 0.16 uM incubated for 24 hrs by Annexin V-FITC and PI staining based flow cytometry (reference value: 1.32%). The data set is classed as functional.
The test system of data set [2] is PC-3. Put plainly: Inhibition of colony formation in human PC-3 cells at 5 nM incubated for 24 hrs followed by replacement with fresh media and measured after 2 weeks by crystal violet staining based assay. The data set is classed as functional, cell-based.
Data set [3] relates to PC-3. As to the kind of experiment: Induction of apoptosis in human PC-3 cells assessed as upregulation of cleaved caspase-3 expression at 0.08 to 0.32 uM by Western blotting analysis. It is filed as functional, cell-based. The settings on record: dose 0.08-0.32 µM.
The subject of data set [4] is PC-3. As to the kind of experiment: Cytotoxicity against human PC-3 cells incubated for 72 hrs by MTT assay. The settings on record: PC-3, 72 h. In general terms: Tetrazolium dyes change colour on reduction, which living cells bring about.
Data set [5] in a line: Clearance in Sprague-Dawley rat at 2 mg/kg, iv measured upto 24 hrs by HPLC-MS analysis. The data set is classed as ADME, organism-based. As to conditions: in vivo.
The target in a further data set is T1, Histone deacetylase 7 (Homo sapiens, UniProt Q8WUI4).
T1 sequence (Q8WUI4 whole entry): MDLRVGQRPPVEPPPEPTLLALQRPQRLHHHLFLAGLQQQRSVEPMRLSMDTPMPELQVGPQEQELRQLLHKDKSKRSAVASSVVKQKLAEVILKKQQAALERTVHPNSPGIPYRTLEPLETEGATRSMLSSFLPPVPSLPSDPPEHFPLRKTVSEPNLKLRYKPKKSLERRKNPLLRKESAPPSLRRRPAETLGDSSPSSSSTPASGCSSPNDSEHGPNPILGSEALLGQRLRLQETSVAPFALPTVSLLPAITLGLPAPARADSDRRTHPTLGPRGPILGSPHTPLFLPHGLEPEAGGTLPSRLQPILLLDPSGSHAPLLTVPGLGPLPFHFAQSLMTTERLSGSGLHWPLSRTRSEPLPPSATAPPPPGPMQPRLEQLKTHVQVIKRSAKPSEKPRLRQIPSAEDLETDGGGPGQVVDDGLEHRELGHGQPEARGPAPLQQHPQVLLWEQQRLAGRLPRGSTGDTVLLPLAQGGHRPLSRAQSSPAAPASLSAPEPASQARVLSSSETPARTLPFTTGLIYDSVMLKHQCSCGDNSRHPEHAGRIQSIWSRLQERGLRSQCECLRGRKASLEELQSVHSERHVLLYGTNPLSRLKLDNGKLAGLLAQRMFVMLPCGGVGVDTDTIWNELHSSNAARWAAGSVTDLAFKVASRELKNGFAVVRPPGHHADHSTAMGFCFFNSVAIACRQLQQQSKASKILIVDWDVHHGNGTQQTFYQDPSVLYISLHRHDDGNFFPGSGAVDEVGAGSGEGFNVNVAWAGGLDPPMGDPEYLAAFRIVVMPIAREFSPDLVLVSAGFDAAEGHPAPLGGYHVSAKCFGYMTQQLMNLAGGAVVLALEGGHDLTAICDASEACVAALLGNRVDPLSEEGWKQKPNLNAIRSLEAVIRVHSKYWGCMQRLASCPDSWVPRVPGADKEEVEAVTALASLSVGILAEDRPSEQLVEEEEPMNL
Put plainly: Inhibition of HDAC7 in human HeLa nuclear extracts incubated for 30 mins by fluorescence based assay. It is filed as cell-free.

Data set [6] deals with T2, Protein deacetylase HDAC6 (Homo sapiens) (UniProt Q9UBN7).
T2 sequence (whole entry): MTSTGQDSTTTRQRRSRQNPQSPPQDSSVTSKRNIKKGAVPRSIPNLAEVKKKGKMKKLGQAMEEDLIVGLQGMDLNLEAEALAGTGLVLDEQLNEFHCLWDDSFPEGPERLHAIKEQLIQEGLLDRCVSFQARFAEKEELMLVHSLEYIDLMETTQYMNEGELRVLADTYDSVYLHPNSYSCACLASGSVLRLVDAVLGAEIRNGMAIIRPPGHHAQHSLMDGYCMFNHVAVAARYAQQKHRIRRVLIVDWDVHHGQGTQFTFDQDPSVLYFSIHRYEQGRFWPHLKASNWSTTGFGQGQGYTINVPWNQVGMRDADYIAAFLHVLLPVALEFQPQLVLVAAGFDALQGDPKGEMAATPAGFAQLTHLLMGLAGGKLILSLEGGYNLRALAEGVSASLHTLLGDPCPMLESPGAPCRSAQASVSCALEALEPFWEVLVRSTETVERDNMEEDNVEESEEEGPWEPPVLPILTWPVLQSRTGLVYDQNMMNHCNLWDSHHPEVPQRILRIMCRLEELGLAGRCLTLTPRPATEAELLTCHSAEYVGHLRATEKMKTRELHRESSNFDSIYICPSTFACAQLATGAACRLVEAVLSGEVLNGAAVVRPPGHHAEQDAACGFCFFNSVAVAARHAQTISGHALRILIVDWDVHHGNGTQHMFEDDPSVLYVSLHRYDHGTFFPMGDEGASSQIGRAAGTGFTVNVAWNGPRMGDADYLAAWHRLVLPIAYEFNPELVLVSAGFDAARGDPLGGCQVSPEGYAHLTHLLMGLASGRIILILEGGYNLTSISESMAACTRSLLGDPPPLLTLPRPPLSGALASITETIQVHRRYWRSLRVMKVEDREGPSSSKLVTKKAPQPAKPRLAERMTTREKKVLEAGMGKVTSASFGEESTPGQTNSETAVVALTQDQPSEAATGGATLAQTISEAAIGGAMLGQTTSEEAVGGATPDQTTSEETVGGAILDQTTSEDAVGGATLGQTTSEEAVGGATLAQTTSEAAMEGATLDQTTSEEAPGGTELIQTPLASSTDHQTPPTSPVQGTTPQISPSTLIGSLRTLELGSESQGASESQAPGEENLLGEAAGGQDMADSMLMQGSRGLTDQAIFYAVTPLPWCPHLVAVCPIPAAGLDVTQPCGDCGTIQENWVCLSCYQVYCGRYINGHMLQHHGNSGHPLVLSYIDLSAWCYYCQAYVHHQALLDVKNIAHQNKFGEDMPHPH
Put plainly: Inhibition of HDAC6 in human PC-3 cells assessed as increase in acetylated alpha-tubulin level incubated for 24 hrs by Western blotting assay. The data set is classed as cell-based. As to conditions: dose 0.08-0.32 µM. For orientation: In western blotting, separated proteins are transferred to a membrane and probed.

The subject of data set [7] is PC-3. Put plainly: Induction of apoptosis in human PC-3 cells assessed as downregulation of Bcl-2 expression at 0.08 to 0.32 uM by Western blotting analysis. The settings on record: dose 0.08-0.32 µM. It is filed as functional, cell-based.
The subject of another data set is U-251. As to the kind of experiment: Cytotoxicity against human U-251 cells incubated for 72 hrs by MTT assay. The settings on record: U-251, 72 h.
Data set [8] can be described thus: Toxicity in BALB/c nude mouse xenografted with human PC-3 cells assessed as liver damage at 10 to 20 mg/kg, iv administered every 2 days and measured after 3 weeks. The data set is classed as organism-based. As to conditions: in vivo, 504 h, dose 10-20 mg/kg. (Xenograft models place foreign cells or tissue in a host animal.)
Data set [9] is described as follows: AUC(0 to t) in Sprague-Dawley rat at 2 mg/kg, iv measured upto 24 hrs by HPLC-MS analysis. It is filed as ADME, organism-based. As to conditions: in vivo.
Data set [10] concerns PC-3. Put plainly: Induction of cell cycle arrest in human PC-3 cells assessed as decrease in phosphorylated […] Tyr15 by Western blotting analysis. The data set is classed as functional, cell-based. The settings on record: dose 0.08-0.32 µM.
In data set [11] the test system is PC-3. As to the kind of experiment: Induction of apoptosis in human PC-3 cells assessed as late apoptotic cells at 0.16 uM incubated for 24 hrs by Annexin V-FITC and PI staining based flow cytometry (reference value: 1.02%). The data set is classed as functional.

For `COc1ccc(/C=C/C(=O)c2ccc(OC)c3c2OC(C)(C)C=C3)cc1NCC(=O)NO`, the figures for the Activity (in the data set with PC-3 [1]; in data set [8]; in the data set on PC-3 [11]) were 15.5%, “Non-Toxic” and 5.28%, respectively. The inhibition result in the data set on PC-3 [2] was “Active”. Further, the result in the data set with PC-3 [3], in the data set with PC-3 [7] and in the data set with PC-3 [10] was Active. The IC50 was found to be 16 nM in the data set with PC-3 [4], 2340 nM at Histone deacetylase 7 and 150 nM in the data set on U-251. The compound further had a clearance in [5] of 5 mL/min/kg. Besides, the inhibition entry in data set [6] is “Dose-Dependent Effect”. Also, the AUCt in data set [9] was 9084 µg/L/h.
